The target of one assay is T1, G9a (Homo sapiens, UniProt Q96KQ7).
T1 construct: purchased Cayman 49010353
T1 sequence (Q96KQ7 1-1210): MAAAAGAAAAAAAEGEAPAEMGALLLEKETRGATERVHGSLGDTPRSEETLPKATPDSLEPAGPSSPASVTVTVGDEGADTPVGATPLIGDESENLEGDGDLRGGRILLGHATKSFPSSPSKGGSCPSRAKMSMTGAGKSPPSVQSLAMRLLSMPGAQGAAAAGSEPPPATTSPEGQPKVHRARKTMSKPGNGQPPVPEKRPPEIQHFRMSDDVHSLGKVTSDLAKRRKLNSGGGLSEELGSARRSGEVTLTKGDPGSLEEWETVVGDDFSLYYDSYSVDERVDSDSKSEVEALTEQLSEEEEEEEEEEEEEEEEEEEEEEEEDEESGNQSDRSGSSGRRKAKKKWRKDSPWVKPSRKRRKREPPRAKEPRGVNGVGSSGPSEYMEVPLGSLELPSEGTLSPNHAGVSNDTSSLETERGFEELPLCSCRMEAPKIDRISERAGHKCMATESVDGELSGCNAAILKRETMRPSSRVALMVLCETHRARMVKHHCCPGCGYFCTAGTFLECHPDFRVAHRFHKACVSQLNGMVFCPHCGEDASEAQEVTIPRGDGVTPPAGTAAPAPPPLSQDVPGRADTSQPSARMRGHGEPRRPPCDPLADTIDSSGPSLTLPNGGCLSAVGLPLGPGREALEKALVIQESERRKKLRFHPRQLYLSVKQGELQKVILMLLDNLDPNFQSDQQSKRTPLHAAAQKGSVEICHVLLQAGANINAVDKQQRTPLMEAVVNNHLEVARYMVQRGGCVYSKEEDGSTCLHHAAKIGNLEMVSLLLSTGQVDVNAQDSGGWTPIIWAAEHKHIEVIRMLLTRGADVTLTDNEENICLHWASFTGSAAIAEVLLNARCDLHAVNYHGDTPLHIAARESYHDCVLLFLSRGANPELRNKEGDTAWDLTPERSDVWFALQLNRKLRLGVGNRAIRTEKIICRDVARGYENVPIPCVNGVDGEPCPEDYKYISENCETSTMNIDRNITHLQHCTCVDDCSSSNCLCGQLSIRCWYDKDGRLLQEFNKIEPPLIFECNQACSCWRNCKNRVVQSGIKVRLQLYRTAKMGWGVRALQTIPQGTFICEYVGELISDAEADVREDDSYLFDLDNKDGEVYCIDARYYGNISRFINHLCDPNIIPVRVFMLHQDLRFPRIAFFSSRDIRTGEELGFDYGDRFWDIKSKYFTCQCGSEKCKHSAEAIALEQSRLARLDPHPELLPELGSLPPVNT
Kind of assay: Fluorescence polarization saturation binding of fluorescent probe to G9a. As for the experimental part:
Methods: The experiment was performed once, with two replicate wells for all methyltransferases per condition. The sole exception to this is NSD2 (see details below). The assay was performed in a ½ area, black, 96-well plate (Corning #3686) in a final volume of 30 μL. Methyltransferases (Table 1) were serially diluted two-fold in FP buffer (Cayman Catalog #600028) and 15 μL of a given dilution were added per well to the assay plate. Fifteen microliters of sinefungin probe 1A (10 nM) were added to each well, giving a final sinefungin probe 1A concentration of 5 nM. This concentration of sinefungin probe 1A was chosen because it had at least a 10-fold increase in fluorescence (excitation max 575 nm/emission max 615 nm) over background (buffer). The mixture was incubated in the dark at room temperature for 30 minutes and its fluorescence polarization was read using a BioTek Synergy 4.
Background: Fluorescence polarisation rises when a labelled molecule tumbles more slowly, as on binding a larger partner.

Another assay deals with T2, GLP (Homo sapiens, UniProt Q9H9B1).
T2 sequence (Q9H9B1 1-1298): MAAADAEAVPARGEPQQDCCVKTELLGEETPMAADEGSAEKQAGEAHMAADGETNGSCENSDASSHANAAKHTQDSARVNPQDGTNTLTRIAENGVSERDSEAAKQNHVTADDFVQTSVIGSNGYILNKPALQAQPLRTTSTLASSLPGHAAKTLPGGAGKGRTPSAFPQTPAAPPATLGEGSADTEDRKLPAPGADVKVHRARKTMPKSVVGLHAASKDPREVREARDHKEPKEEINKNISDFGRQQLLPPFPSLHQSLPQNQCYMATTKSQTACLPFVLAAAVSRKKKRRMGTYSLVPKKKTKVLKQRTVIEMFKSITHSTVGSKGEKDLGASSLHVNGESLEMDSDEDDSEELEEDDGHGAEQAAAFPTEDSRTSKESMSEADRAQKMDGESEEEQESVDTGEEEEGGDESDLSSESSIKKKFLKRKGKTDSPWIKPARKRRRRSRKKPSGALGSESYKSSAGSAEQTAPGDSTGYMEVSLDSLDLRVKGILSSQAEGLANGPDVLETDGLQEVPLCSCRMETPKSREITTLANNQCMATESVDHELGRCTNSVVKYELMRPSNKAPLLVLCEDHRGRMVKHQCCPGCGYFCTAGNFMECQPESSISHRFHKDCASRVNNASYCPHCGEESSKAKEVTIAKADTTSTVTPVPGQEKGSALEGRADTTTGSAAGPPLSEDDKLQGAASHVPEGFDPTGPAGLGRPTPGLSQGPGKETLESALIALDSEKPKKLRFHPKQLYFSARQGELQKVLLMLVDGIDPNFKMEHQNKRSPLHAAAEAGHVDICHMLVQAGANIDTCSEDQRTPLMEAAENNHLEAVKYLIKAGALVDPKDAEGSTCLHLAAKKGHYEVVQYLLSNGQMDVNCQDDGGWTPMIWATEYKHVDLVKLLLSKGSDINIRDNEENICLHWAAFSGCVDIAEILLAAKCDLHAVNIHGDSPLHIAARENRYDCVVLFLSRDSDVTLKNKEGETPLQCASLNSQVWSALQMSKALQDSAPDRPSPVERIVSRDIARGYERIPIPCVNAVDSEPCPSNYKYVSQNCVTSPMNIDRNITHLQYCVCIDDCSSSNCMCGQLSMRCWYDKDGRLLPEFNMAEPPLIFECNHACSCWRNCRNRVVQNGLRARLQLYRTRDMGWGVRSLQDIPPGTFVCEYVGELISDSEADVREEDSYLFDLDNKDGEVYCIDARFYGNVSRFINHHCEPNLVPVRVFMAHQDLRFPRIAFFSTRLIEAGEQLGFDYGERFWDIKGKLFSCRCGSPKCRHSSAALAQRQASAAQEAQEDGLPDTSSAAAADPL
Kind of assay: Fluorescence polarization saturation binding of fluorescent probe to GLP. The conditions noted are these: saturation-binding format, mean ± SEM, read-out: Sinefungin Probe 1A Affinity. As for the experimental part:
(§1) Sinefungin Probe 1A was tested for the ability to bind to 16 proteins, including several non-methlytransferase protein controls (Table 2). This probe binds to 4 methyltransferases (SET7/9, G9a, GLP, MLL) with Kd values <2 μM.

The target in another assay is ASH2L (Homo sapiens, UniProt Q9UBL3). In words: Fluorescence polarization saturation binding of fluorescent probe to ASH2L. The conditions noted are these: saturation-binding format, read-out: Sinefungin Probe 1A Affinity. As for the experimental part:
as §1

Where two headings read alike, the source gives them in different places.

Sequence of ASH2L (Q9UBL3 whole entry, species assumed): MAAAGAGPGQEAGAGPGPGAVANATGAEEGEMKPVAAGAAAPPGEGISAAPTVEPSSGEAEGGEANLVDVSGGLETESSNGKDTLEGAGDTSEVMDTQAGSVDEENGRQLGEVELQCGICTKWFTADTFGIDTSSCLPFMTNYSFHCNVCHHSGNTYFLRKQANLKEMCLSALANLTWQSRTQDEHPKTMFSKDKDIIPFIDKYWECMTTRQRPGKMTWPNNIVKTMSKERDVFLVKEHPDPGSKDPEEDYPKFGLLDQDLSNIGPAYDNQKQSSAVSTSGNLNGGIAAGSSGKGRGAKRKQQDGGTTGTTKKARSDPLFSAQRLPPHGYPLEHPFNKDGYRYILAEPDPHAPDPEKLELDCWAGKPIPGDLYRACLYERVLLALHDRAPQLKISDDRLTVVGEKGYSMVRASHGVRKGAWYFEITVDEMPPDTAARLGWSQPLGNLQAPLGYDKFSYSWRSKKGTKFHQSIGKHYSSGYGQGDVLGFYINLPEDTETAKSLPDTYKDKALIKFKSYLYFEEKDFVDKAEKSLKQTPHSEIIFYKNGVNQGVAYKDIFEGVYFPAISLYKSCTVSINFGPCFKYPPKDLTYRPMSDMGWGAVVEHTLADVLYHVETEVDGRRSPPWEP

On to `Nc1ncnc2c1ncn2[C@@H]1O[C@H](C[C@@H](N)CC[C@H](N)C(=O)O)[C@@H](OCc2cnnn2CCCCCCNC(=O)OC2CCN(C(=O)c3ccccc3C3=c4cc5c6c(c4Oc4c3cc3c7c4CCCN7CCC3)CCC[N+]=6CCC5)CC2)[C@H]1O` [Sinefungin Probe 1A], for which the Kd was around 700 nM at G9a (Example 8, G9a, 5 nM probe, experiment performed once, FIG. 2, read-out: Kd); 1800 ± 1000 nM at G9a (G9a, saturation-binding format, mean ± SEM, read-out: Sinefungin Probe 1A Affinity); 580 ± 50 nM at GLP; above 10000 nM at ASH2L.

The values are drawn from patent US9120820B2, “Fluorescent molecular probes for use in assays that measure test compound competitive binding with SAM-utilizing proteins” (CAYMAN CHEMICAL COMPANY, INCORPORATED, priority 2011, dated 2015).
